Results as given in PubChem BioAssay AID248 (DTP/NCI, 2004).
Where “and” joins values, the source holds several entries; their conditions need not be identical. Equal entries are not always repeated. Toxic doses and inconclusive results are not listed. No stated cut-off is given here; in the data, active means T/C of 150% or more; inactive means T/C below 125%.

Tested on: L1210 leukemia ip in BDF1 mice, survival T/C
Test: NCI In Vivo Anticancer Drug Screen. Data for tumor model L1210 Leukemia (intraperitoneal) in B6D2F1 (BDF1) mice
Conditions: endpoint: mean survival time, higher = longer survival
Outline: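 Each compound was tested against a transplantable tumor grown in mice. The endpoint was survival, with treated animals benchmarked against vehicle controls as a simple ratio.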

[1] = dose: 100.0 mg/kg/injection, schedule: Q04DX003 (ip), vehicle: Klucel (hydroxypropylcellulose) (HPC)
[2] = dose: 200.0 mg/kg/injection, schedule: Q04DX003 (ip), vehicle: Klucel (hydroxypropylcellulose) (HPC)
[3] = dose: 400.0 mg/kg/injection, schedule: Q04DX003 (ip), vehicle: Klucel (hydroxypropylcellulose) (HPC)
[4] = dose: 100.0 mg/kg/injection, schedule: Q01DX001 (ip), vehicle: saline with Tween-80
[5] = dose: 100.0 mg/kg/injection, schedule: Q01DX009 (ip), vehicle: saline with Tween-80
[6] = dose: 200.0 mg/kg/injection, schedule: Q01DX001 (ip), vehicle: saline with Tween-80
[7] = dose: 200.0 mg/kg/injection, schedule: Q01DX009 (ip), vehicle: saline with Tween-80
[8] = dose: 400.0 mg/kg/injection, schedule: Q01DX001 (ip), vehicle: saline with Tween-80
[9] = dose: 100.0 mg/kg/injection, schedule: Q04DX003 (ip), vehicle: saline with Tween-80
[10] = dose: 200.0 mg/kg/injection, schedule: Q04DX003 (ip), vehicle: saline with Tween-80
[11] = dose: 400.0 mg/kg/injection, schedule: Q04DX003 (ip), vehicle: saline with Tween-80

Measured: T/C

Cc1ccc(NC(=O)Oc2ccc(Cl)cc2C)c([N+](=O)[O-])c1
inactive: [1] 102 % of control | [2] 101 % of control | [3] 91 % of control

O=C1C(=O)c2ccccc2-c2ccccc21.O=C1C(=O)c2ccccc2-c2ccccc21.[Hg]
inactive: dose: 6.25 mg/kg/injection, schedule: Q04DX003 (ip), vehicle: saline with Tween-80 95 % of control

Nc1ncnc2nc(-c3ccc(SCc4ccccc4)cc3)[nH]c12
inactive: dose: 50.0 mg/kg/injection, schedule: Q01DX009 (ip), vehicle: saline with Tween-80 93 % of control and 89 % of control | [4] 91 % of control | [5] 99 % of control and 103 % of control and 104 % of control | dose: 100.0 mg/kg/injection, schedule: Q04DX002 (ip), vehicle: saline with Tween-80 103 % of control | [6] 87 % of control | [7] 96 % of control and 103 % of control and 86 % of control | dose: 200.0 mg/kg/injection, schedule: Q04DX002 (ip), vehicle: saline with Tween-80 97 % of control and 100 % of control | [8] 91 % of control | dose: 400.0 mg/kg/injection, schedule: Q04DX002 (ip), vehicle: saline with Tween-80 94 % of control and 100 % of control

O=[N+]([O-])c1ccc(S(=O)(=O)OCc2cccc(OS(=O)(=O)c3ccc([N+](=O)[O-])cc3)c2)cc1
inactive: [4] 100 % of control | dose: 100.0 mg/kg/injection, schedule: Q01DX009 (ip), vehicle: Klucel (hydroxypropylcellulose) (HPC) 94 % of control | [1] 100 % of control | [6] 104 % of control | dose: 200.0 mg/kg/injection, schedule: Q01DX009 (ip), vehicle: Klucel (hydroxypropylcellulose) (HPC) 93 % of control | [2] 95 % of control | [8] 102 % of control | dose: 400.0 mg/kg/injection, schedule: Q01DX009 (ip), vehicle: Klucel (hydroxypropylcellulose) (HPC) 107 % of control | [3] 102 % of control

CS/C(N)=N\S(=O)(=O)c1ccc(NC(C)=O)cc1
inactive: [9] 93 % of control | [10] 90 % of control | [11] 96 % of control

CC1(C)C2CCC(O)(C(=O)O)C1C2 (configuration not stated)
inactive: dose: 50.0 mg/kg/injection, schedule: Q01DX001 (ip), vehicle: carboxymethylcellulose (CMC) 106 % of control | dose: 100.0 mg/kg/injection, schedule: Q01DX001 (ip), vehicle: carboxymethylcellulose (CMC) 91 % of control | dose: 200.0 mg/kg/injection, schedule: Q01DX001 (ip), vehicle: carboxymethylcellulose (CMC) 91 % of control | dose: 400.0 mg/kg/injection, schedule: Q01DX001 (ip), vehicle: carboxymethylcellulose (CMC) 100 % of control

Cc1c(Cl)c(Cl)c(Cl)c(Cl)c1Cl
inactive: [9] 101 % of control | [10] 95 % of control | [11] 95 % of control

CC(C)[Si](F)(c1ccc(Br)cc1)C(C)C
inactive: [5] 103 % of control | [7] 95 % of control

CCOC(=O)CC1=NC(C)(C)CC(C)O1 (configuration not stated)
inactive: dose: 100.0 mg/kg/injection, schedule: Q04DX003 (ip), vehicle: saline sonified 98 % of control | dose: 200.0 mg/kg/injection, schedule: Q04DX003 (ip), vehicle: saline sonified 92 % of control | dose: 400.0 mg/kg/injection, schedule: Q04DX003 (ip), vehicle: saline sonified 115 % of control

CCN(C(=S)c1ccc(OC)cc1)c1cccc(C)c1
inactive: dose: 75.0 mg/kg/injection, schedule: Q04DX003 (ip), vehicle: Klucel (hydroxypropylcellulose) (HPC) 94 % of control | dose: 100.0 mg/kg/injection, schedule: Q01DX001 (ip), vehicle: Klucel (hydroxypropylcellulose) (HPC) 103 % of control | dose: 150.0 mg/kg/injection, schedule: Q04DX003 (ip), vehicle: Klucel (hydroxypropylcellulose) (HPC) 111 % of control | dose: 200.0 mg/kg/injection, schedule: Q01DX001 (ip), vehicle: Klucel (hydroxypropylcellulose) (HPC) 97 % of control | dose: 300.0 mg/kg/injection, schedule: Q04DX003 (ip), vehicle: Klucel (hydroxypropylcellulose) (HPC) 100 % of control | dose: 400.0 mg/kg/injection, schedule: Q01DX001 (ip), vehicle: Klucel (hydroxypropylcellulose) (HPC) 96 % of control

CC(=O)c1c(C)cc(C)c(CC(=O)O)c1C
inactive: dose: 75.0 mg/kg/injection, schedule: Q01DX009 (ip), vehicle: Klucel (hydroxypropylcellulose) (HPC) 104 % of control | dose: 150.0 mg/kg/injection, schedule: Q01DX009 (ip), vehicle: Klucel (hydroxypropylcellulose) (HPC) 97 % of control | dose: 300.0 mg/kg/injection, schedule: Q01DX009 (ip), vehicle: Klucel (hydroxypropylcellulose) (HPC) 93 % of control

CCOC(=O)CN1CC(=O)OC(C(Cl)(Cl)Cl)C1 (configuration not stated)
inactive: [9] 98 % of control | [10] 90 % of control | [11] 93 % of control

CC(N)CC(C)(C)N (configuration not stated)
inactive: dose: 50.0 mg/kg/injection, schedule: Q04DX003 (ip), vehicle: saline 90 % of control | dose: 100.0 mg/kg/injection, schedule: Q04DX003 (ip), vehicle: saline 91 % of control | dose: 200.0 mg/kg/injection, schedule: Q04DX003 (ip), vehicle: saline 90 % of control

CC(C)(C)OC(=O)N/N=C/c1ccc([N+](=O)[O-])s1
inactive: [9] 94 % of control | [10] 98 % of control | [11] 89 % of control
